Data published in patent US20150190396A1, “TREATMENT OF TYPE I AND TYPE II DIABETES” (Melior Pharmaceuticals I, Inc., priority 2011, published 2015).
Entries after “also recorded” stand apart in the source; their conditions may differ.

How the values were obtained:
Format in all cases: in vivo
[1] = test system: streptozocin Type I diabetic male CD-1: ICR mice; test: Streptozocin Type I diabetic mice, insulin tolerance test, blood glucose
Protocol: In the present study, male CD-1: ICR mice (Charles River) approximately 8 weeks of age were used. Streptozocin administration to mice destroys pancreatic β-cells and is used to produce a model of Type I diabetes. In response to loss of pancreatic β-cells, mice become hyperglycemic. These mice are insulin responsive.
Streptozocin administration: Streptozocin administration to mice was conducted by a standard method. Briefly, mice were administered STZ at a dose-level of 70 mg/kg on day 1, 3 and 8. Each administration was preceded by an 18 hour fast. Mice were administered insulin (0.5 U) on days 2 and 9. On day 11, blood glucose levels were measured. Mice with blood glucose levels less than 300 mg/dL were excluded from the study. Mice were randomized to treatment groups.
Mice were tested on the insulin tolerance test on day 14 after the initial STZ administration. Mice were administered insulin (0.35U s.c.) and then 30 minutes later administered Compound 102 (100 mg/kg i.p.).
Blood glucose was measured 5, 15, 30, 60, 90, 120, 180, 240, 360, and 480 minutes after Compound 102 or vehicle administration. Blood was collected from a tail snip and drop of blood measured for glucose levels by glucometer (Accu-Chek Aviva Glucometers; Roche Diagnostics).
Data are expressed as the average±SEM. Data were analyzed by two-way ANOVA followed by post-hoc Bonferroni test. N=6/group

[2] = test system: male DbDb Lep-deficient mice; test: Db/Db Study 1: blood glucose after insulin and/or Compound 102
Protocol: In the present study, male DbDb Lep-deficient mice (Harlan Laboratories) approximately 16 weeks of age were used. [table] Procedure: Mice were divided into 4 groups of 6 mice per group. Blood glucose levels were measured using Accu-Chek Aviva Glucometers (Roche Diagnostics). The times of blood glucose levels were measured up to 72 hours after administration. Glucometers were calibrated prior to each study. […] Glucose levels are reported as mg/dL. In study 1, animals were fasted for 4 hours prior to the administration of test articles and then continuously fasted through to the 8-hour time point. Animals were then provided food ad libitum until 4-hour prior to the 28-hour time point at which point they were fasted until the last blood glucose measurement time point. Data are expressed as the average±SEM. Data were analyzed by two-way ANOVA followed by post-hoc Bonferroni test. N=6/group.

[3] = test system: male DbDb Lep-deficient mice; test: Db/Db Study 2: blood glucose 24-72 hours after insulin and/or Compound 102; settings: for blood glucose levels compared with vehicle controls: twenty-four hours after administration alone, insulin 1.5 units/kg or Compound 102 100 mg/kg, 18 week old db/db mice
Protocol: In the present study, male DbDb Lep-deficient mice (Harlan Laboratories) approximately 18 weeks of age were used. [table] Procedure: Mice were divided into 4 groups of 6 mice per group. Blood glucose levels were measured using Accu-Chek Aviva Glucometers (Roche Diagnostics). The times of blood glucose levels were measured up to 72 hours after administration. Glucometers were calibrated prior to each study. […] Glucose levels are reported as mg/dL. In study 2, animals were fasted for 4 hours prior to each blood glucose measurement time point and then returned to ad libitum food. Data are expressed as the average±SEM. Data were analyzed by two-way ANOVA followed by post-hoc Bonferroni test. N=6/group Results: A second study was conducted to repeat the findings of Compound 102 effects on insulin action in the 24-72 hours time window and specifically to follow the insulin/Compound 102 combination effect through until it returned to normal levels (i.e., that of vehicle-treated animals). In the second study, there were three differences from the first: 1) mice were 18 weeks of age at the time of study, 2) the insulin dose-level was reduced from 3 to 1.5 U/kg and 3) blood glucose levels were measured out until 72 hours after administration.

Cc1cccc(Oc2cnc(=O)[nH]c2)c1 [Compound 102]
effect on insulin action / insulin-mediated blood glucose lowering ([1]; Compound 102 100 mg/kg i.p. 30 minutes after insulin, p<0.05, p<0.001 versus insulin alone, FIG. 3, 100 mg/kg): potentiated the insulin effect; also recorded: potentiated and prolonged the actions of insulin; also recorded: potentiated and prolonged insulin-mediated blood glucose lowering
insulin-mediated blood glucose reduction to ([1]; Compound 102 100 mg/kg i.p. administered 30 minutes after insulin (0.35)): 157 mg/dL
effect on blood glucose levels ([1]; Compound 102 100 mg/kg i.p. alone, insulin depleted mice, up to 6 hours, 100 mg/kg): did not affect blood glucose levels at any time point up to 6 hours after administration
blood glucose levels still reduced up to ([1]; Compound 102 100 mg/kg i.p. in combination with insulin, time after administration): up to 6 hours
effect on blood glucose levels ([2]; Compound 102 100 mg/kg alone, 100 mg/kg): did not significantly affect blood glucose levels at any time point after administration; also recorded: Small, but statistically insignificant lowering of blood glucose
blood glucose levels compared with vehicle controls [3]: not different from vehicle controls

Insulin [reference compound]
blood glucose levels ([1]; insulin alone (0.35), 90 minutes after administration, baseline 546 mg/dL): 263 mg/dL
time at which blood glucose levels returned to baseline levels ([1]; insulin alone (0.35), after administration): 4.5 h
time by which blood glucose levels returned to baseline levels ([2]; insulin 3 units/kg alone): ≤ 8 h
blood glucose levels ([2]; insulin 3 units/kg alone, three hours after administration, fasted 16 week old db/db mice, baseline averaged 482 mg/dL): 166.5 mg/dL
blood glucose in the insulin treated group ([3]; insulin 1.5 units/kg alone, 24-72 hours window (elevation at 24 and 36 hour time points, rebound effect)): does not show blood glucose lowering; also recorded: slightly elevated blood glucose
blood glucose levels compared with vehicle controls [3]: not different from vehicle controls
